# In ChEMBL document CHEMBL5523727, “Discovery of KT-413, a Targeted Protein Degrader of IRAK4 and IMiD Substrates Targeting MYD88 Mutant Diffuse Large B-Cell Lymphoma” (J Med Chem, 2024):
# pIC50, pKd: −log10 of the molar value.
# Experiments:
# [1] = molecular target: Protein cereblon/Interleukin-1 receptor-associated kinase 4 (Homo sapiens, UniProt Q96SW2+Q9NWZ3); assay: Binding affinity to CRBN/IRAK4 […] assessed as dissociation constant by DiscoverX Kd Elect assay
# [2] = Volume of distribution at steady state in rat at 2 mg/kg, iv by LC-MS/MS analysis; assay type: ADME, organism-based; conditions: in vivo, read-out: Vdss
# [3] = system: OCI-Ly10; assay: Antiproliferative activity against human OCI-Ly10 cells measured after 4 days by CellTiter-Glo Luminescent Cell Viability Assay; assay type: functional, cell-based
# [4] = molecular target: Cereblon/Ikaros (Homo sapiens, UniProt Q96SW2+Q13422); assay: PROTAC activity at CRBN/Ikaros in human OCI-Ly10 cells assessed as induction of Ikaros degradation measured after 24 hrs by MSD assay; assay type: cell-based
# Chain of Cereblon/Ikaros (Q96SW2 whole entry): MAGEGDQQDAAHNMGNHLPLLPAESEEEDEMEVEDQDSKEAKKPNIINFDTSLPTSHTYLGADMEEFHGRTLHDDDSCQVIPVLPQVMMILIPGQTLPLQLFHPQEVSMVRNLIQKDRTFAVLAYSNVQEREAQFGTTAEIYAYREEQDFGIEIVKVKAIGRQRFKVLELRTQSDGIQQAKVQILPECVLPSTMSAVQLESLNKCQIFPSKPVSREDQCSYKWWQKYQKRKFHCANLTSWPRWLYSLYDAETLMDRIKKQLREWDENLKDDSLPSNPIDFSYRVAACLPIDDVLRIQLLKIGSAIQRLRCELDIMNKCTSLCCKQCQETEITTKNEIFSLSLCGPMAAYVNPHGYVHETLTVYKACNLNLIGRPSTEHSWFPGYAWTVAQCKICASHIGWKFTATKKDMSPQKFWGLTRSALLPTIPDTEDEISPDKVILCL
# Chain of Cereblon/Ikaros (Q13422 whole entry): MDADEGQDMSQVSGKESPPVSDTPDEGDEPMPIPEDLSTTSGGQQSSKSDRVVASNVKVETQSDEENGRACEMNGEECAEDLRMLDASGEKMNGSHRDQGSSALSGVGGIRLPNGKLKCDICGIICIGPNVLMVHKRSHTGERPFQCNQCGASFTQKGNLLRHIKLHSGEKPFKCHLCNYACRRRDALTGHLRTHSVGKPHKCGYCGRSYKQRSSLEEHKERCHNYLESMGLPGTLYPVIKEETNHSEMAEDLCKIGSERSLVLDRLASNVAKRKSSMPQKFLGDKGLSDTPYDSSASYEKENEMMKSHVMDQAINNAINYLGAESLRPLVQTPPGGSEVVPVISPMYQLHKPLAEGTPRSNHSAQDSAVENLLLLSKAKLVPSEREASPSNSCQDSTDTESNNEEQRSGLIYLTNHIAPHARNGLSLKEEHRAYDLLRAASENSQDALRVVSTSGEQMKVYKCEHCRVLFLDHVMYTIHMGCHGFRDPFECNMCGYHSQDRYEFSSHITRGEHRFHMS
# [5] = Metabolic stability in human liver microsomes assessed as intrinsic clearance at 1 uM measured upto 60 mins in presence of NADPH by UPLC/MS-MS analysis; assay type: ADME, Microsome; conditions: read-out: CLH
# [6] = AUC in rat at 10 mg/kg, po by LC-MS/MS analysis; assay type: ADME, organism-based; conditions: in vivo
# [7] = molecular target: Protein cereblon/Interleukin-1 receptor-associated kinase 4 (Homo sapiens, UniProt Q9NWZ3+Q96SW2); assay: PROTAC activity at CRBN/IRAK4 in human OCI-Ly10 cells assessed as induction of IRAK4 degradation measured after 24 hrs by MSD assay; assay type: cell-based
# Chain of Protein cereblon/Interleukin-1 receptor-associated kinase 4 (Homo sapiens, UniProt Q9NWZ3+Q96SW2) (Q9NWZ3 whole entry): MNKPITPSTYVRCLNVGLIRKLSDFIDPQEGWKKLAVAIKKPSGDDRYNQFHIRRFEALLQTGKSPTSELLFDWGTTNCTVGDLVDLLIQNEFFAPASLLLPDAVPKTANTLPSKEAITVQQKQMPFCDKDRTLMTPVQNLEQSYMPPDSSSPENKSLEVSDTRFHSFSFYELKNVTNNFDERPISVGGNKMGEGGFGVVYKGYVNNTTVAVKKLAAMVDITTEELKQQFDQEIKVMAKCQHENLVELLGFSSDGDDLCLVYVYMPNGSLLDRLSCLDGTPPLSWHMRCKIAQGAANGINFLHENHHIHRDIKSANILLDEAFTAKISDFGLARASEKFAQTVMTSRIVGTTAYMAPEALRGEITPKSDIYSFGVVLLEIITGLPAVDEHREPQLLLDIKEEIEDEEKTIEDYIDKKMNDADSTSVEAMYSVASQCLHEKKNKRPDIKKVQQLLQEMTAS
# Chain of Protein cereblon/Interleukin-1 receptor-associated kinase 4 (Homo sapiens, UniProt Q9NWZ3+Q96SW2) (Q96SW2 whole entry): as the sequence (Q96SW2 whole entry) above
# [8] = Metabolic stability in rat liver microsomes assessed as intrinsic clearance at 1 uM measured upto 60 mins in presence of NADPH by UPLC/MS-MS analysis; assay type: ADME, Microsome; conditions: read-out: CLH
# [9] = Half life in rat at 2 mg/kg, iv by LC-MS/MS analysis; assay type: ADME, organism-based; conditions: in vivo
# [10] = Passive permeability of the compound in wild type MDCK cells across apical to basolateral side at 1 uM measured for 120 mins by LC-MS/MS analysis; assay type: ADME, cell-based, Canis lupus familiaris; conditions: dog, read-out: permeability
# [11] = Clearance in rat at 2 mg/kg, iv by LC-MS/MS analysis; assay type: ADME, organism-based; conditions: in vivo
# [12] = Oral bioavailability in rat at 10 mg/kg by LC-MS/MS analysis; assay type: ADME, organism-based; conditions: in vivo; for F: po, 10 mg/kg
# [13] = molecular target: Protein cereblon (Homo sapiens, UniProt Q96SW2); assay: Binding affinity to CRBN (unknown origin) by HTRF assay
# Chain of Protein cereblon (Q96SW2 whole entry): as above
# Chain of Protein cereblon/Interleukin-1 receptor-associated kinase 4 (Homo sapiens, UniProt Q96SW2+Q9NWZ3) (Q9NWZ3 whole entry): as the sequence (Q9NWZ3 whole entry) above
# Chain of Protein cereblon/Interleukin-1 receptor-associated kinase 4 (Homo sapiens, UniProt Q96SW2+Q9NWZ3) (Q96SW2 whole entry): as the sequence (Q96SW2 whole entry) above
Structure (SMILES),pKd [1],Vd [2] [L/kg],"pIC50 ([3]; Homo sapiens, OCI-Ly10, 96 h)",DC50 [4] [nM],microsomal CLint at 1 µM [5] [µL/min/mg],AUC ([6]; read-out: AUC) [µM·h],DC50 [7] [nM],microsomal CLint at 1 µM [8] [µL/min/mg],half-life [9] [h],"Papp A→B at 2 h, 1 µM [10] [×10⁻⁶ cm/s]",clearance [11] [mL/min/kg],bioavailability [12] [%],"AUC ([6]; po, 10 mg/kg) [µM·h]",pIC50 [13],F [12] [%],pIC50 ([3]; oci-ly10)
CC(C)(O)c1cc2nn(-c3ccc(CO)cc3)cc2cc1NC(=O)c1cccc(C(F)(F)F)n1,8.46,–,–,–,–,–,–,–,–,–,–,–,–,–,–,–
COc1cc2nc([C@H]3CC[C@H](CN4CC5(CC(CCNc6cccc7c6C(=O)N(C6CCC(=O)NC6=O)C7=O)C5)C4)CC3)cn2cc1NC(=O)c1cccc(C(F)(F)F)n1 (stereo partly specified),–,43,6.81,26,< 1.8,0.01,38,< 1.8,15,0.64,40,< 1,–,–,–,–
O=C1CCC(N2C(=O)c3cccc(NCC4CC5(CCN(C[C@H]6CC[C@H](n7cc8cc(NC(=O)c9cccc(C(F)(F)F)n9)c(C(F)F)cc8n7)CC6)CC5)C4)c3C2=O)C(=O)N1 (stereo partly specified),–,11,6.85,69,< 1.8,–,56,< 1.8,29,2.7,–,–,1.5,7.24,16,–
Nc1cccc2c1C(=O)N(C1CCC(=O)NC1=O)C2=O (stereo unspecified) [POMALIDOMIDE],–,–,5.85,–,–,–,–,–,–,–,–,–,–,–,–,–
CC(C)(O)c1cc2nn(CCCCCNCCCNc3cccc4c3C(=O)N(C3CCC(=O)NC3=O)C4=O)cc2cc1NC(=O)c1cccc(C(F)(F)F)n1 (stereo unspecified),8.66,–,6.90,17,–,–,128,–,–,0.42,–,–,–,7.10,–,–
COc1cc2nn([C@H]3CC[C@H](CN4CC5(CC(CCNc6cccc7c6C(=O)N(C6CCC(=O)NC6=O)C7=O)C5)C4)CC3)cc2cc1NC(=O)c1cccc(C(F)(F)F)n1 (stereo partly specified),–,29,7.32,9,0.79,–,8,1.6,17,1,–,–,0.13,7.57,4.2,–
CN(CCCOCCCNc1cccc2c1C(=O)N(C1CCC(=O)NC1=O)C2=O)C[C@H]1CC[C@H](n2cc3cc(NC(=O)c4cccc(C(F)(F)F)n4)c(C(C)(C)O)cc3n2)CC1 (stereo partly specified),9.18,–,6.57,21,60,–,12,53,–,7.5,–,–,–,7.49,–,–
COc1cc2nn([C@H]3CC[C@H](CN4CCC5(CC4)CC(CNc4cccc6c4C(=O)N(C4CCC(=O)NC4=O)C6=O)C5)CC3)cc2cc1NC(=O)c1cccc(C(F)(F)F)n1 (stereo partly specified),–,11,7.08,43,2.7,–,16,1.6,25,1.3,–,–,1.88,7.18,11,–
CC(C)(O)c1cc2nn([C@H]3CC[C@H](CO)CC3)cc2cc1NC(=O)c1cccc(C(F)(F)F)n1,9.43,–,–,–,–,–,–,–,–,–,–,–,–,–,–,–
COc1cc2nn([C@H]3CC[C@H](CN(C)CCCO[C@H]4C[C@H](Nc5cccc6c5C(=O)N(C5CCC(=O)NC5=O)C6=O)C4)CC3)cc2cc1NC(=O)c1cccc(C(F)(F)F)n1 (stereo partly specified),–,–,6.44,28,19,–,29,10,–,2.4,–,–,–,7.64,–,–
CN(CCCO[C@H]1C[C@H](Nc2cccc3c2C(=O)N(C2CCC(=O)NC2=O)C3=O)C1)C[C@H]1CC[C@H](n2cc3cc(NC(=O)c4cccc(C(F)(F)F)n4)ccc3n2)CC1 (stereo partly specified),–,–,7.12,10,102,–,33,11,–,5.5,–,–,–,7.62,–,–
CN(CCCO[C@H]1C[C@@H](Nc2cccc3c2C(=O)N(C2CCC(=O)NC2=O)C3=O)C1)C[C@H]1CC[C@H](n2cc3cc(NC(=O)c4cccc(C(F)(F)F)n4)c(C(C)(C)O)cc3n2)CC1 (stereo partly specified),9.47,–,6.78,10,26,–,43,16,–,2.8,–,–,–,7.12,–,–
CN(CCCO[C@H]1C[C@H](Nc2cccc3c2C(=O)N(C2CCC(=O)NC2=O)C3=O)C1)C[C@H]1CC[C@H](n2cc3cc(NC(=O)c4cccc(C(F)(F)F)n4)c(C(F)F)cc3n2)CC1 (stereo partly specified),–,–,7.34,17,25,–,13,32,–,0.76,–,–,–,7.62,–,–
CN(CCCNc1cccc2c1C(=O)N(C1CCC(=O)NC1=O)C2=O)C[C@H]1CC[C@H](n2cc3cc(NC(=O)c4cccc(C(F)(F)F)n4)c(C(C)(C)O)cc3n2)CC1 (stereo partly specified),9.42,–,6.92,10,140,–,36,138,–,0.66,–,–,–,7.21,–,–
CN(C[C@H]1CC[C@H](n2cc3cc(NC(=O)c4cccc(C(F)(F)F)n4)c(C(C)(C)O)cc3n2)CC1)[C@H]1CC[C@]2(CC1)C[C@H](Nc1cccc3c1C(=O)N(C1CCC(=O)NC1=O)C3=O)C2 (stereo partly specified),–,–,7.11,57,< 1.8,–,6,< 1.8,–,2.1,–,–,–,8.10,–,–
CN(CCCN(C)c1cccc2c1C(=O)N(C1CCC(=O)NC1=O)C2=O)C[C@H]1CC[C@H](n2cc3cc(NC(=O)c4cccc(C(F)(F)F)n4)c(C(C)(C)O)cc3n2)CC1 (stereo partly specified),9.19,–,6.51,282,300,–,14,250,–,4.2,–,–,–,6.70,–,–
COc1cc2nc([C@H]3CC[C@H](CN4CC5(CC(CCNc6cccc7c6C(=O)N(C6CCC(=O)NC6=O)C7=O)C5)C4)CC3)n(C)c2cc1NC(=O)c1cccc(C(F)(F)F)n1 (stereo partly specified),–,33,7.46,2,7,0.09,33,2.2,11,0.4,41,2.3,–,–,–,–
CC(C)(O)c1cc2nn(CCCCCCCCCNc3cccc4c3C(=O)N(C3CCC(=O)NC3=O)C4=O)cc2cc1NC(=O)c1cccc(C(F)(F)F)n1 (stereo unspecified),6.49,–,6.23,55,–,–,3300,–,–,–,–,–,–,< 5.96,–,–
CN(C[C@H]1CC[C@H](n2cc3cc(NC(=O)c4cccc(C(F)(F)F)n4)c(C(C)(C)O)cc3n2)CC1)[C@H]1CC[C@@]2(CC1)C[C@H](Nc1cccc3c1C(=O)N(C1CCC(=O)NC1=O)C3=O)C2 (stereo partly specified),–,–,–,19,< 1.8,–,13,< 1.8,–,2.9,–,–,–,8.30,–,6.87
